Six molecules from the NIST ThermoML archive (doi:10.1016/j.tca.2009.07.011) can be followed below.

For data set [1] the following is noted: 298.15 K, 101 kPa, Liquid.
Data set [2] in a line: refractive index (Na D-line) (dimensionless). As to conditions: 298.15 K; 101.33 kPa; Liquid; Standard Abbe refractometry.
Data set [3] is described as follows: xn = mol fraction of the nth substance listed. Conditions: 298.15 K, 101 kPa, Liquid; for viscosity: Capillary tube (Ostwald / Ubbelohde) method; for mass density: Pycnometric method; for speed of sound: ultra sonice interferometer.
Data set [4] is described as follows: refractive index (Na D-line) (dimensionless); xn = mol fraction of the nth substance listed. As to conditions: 298.15 K, 101 kPa, Liquid, Standard Abbe refractometry.

Numbers after ± are expanded uncertainties.

Usually viscosity stands for the resistance of a fluid to flow. As a reminder, the mass density is the mass of a sample divided by its volume. As usually defined, the speed of sound is how fast a sound wave travels through the sample. A word on the refractive index: it is the speed of light in vacuum divided by its phase velocity in the sample.

Take `C1COCO1` [1,3-dioxolane]: the viscosity in data set [1] (Capillary tube (Ostwald / Ubbelohde) method) is 0.588 ± 0.008 mPa·s. For the same molecule, the mass density in data set [1] (Pycnometric method) was determined as 1057 ± 0.6 kg/m3. In addition, the speed of sound in data set [1] (ultra sonice interferometer) is 1339 ± 1 m/s. Also, the refractive index in data set [2] was 1.398 ± 0.001.

As for `CC(=O)OCCC(C)C` [3-methylbutyl ethanoate] + ClCCl, in data set [3] (x2 = 0.6052), the viscosity was determined as 0.633 ± 0.008 mPa·s, the mass density worked out at 1043.3 ± 0.6 kg/m3 and the speed of sound was determined as 1115 ± 1 m/s. Besides, the refractive index in data set [4] (x2 = 0.6052) is on record as 1.406 ± 0.001.

As for `ClCCl` [dichloromethane] + CCCCOC(C)=O, in data set [3] (x1 = 0.5777), the viscosity is 0.575 ± 0.008 mPa·s, the mass density is 1049.2 ± 0.6 kg/m3 and the speed of sound is reported as 1181 ± 1 m/s. Besides, in data set [4] (x1 = 0.5777), the refractive index was 1.403 ± 0.001.

Turning to `ClCCl` [dichloromethane] + CCCOC(C)=O, in data set [3] (x1 = 0.546), the viscosity was determined as 0.518 ± 0.007 mPa·s, the mass density was found to be 1053.5 ± 0.6 kg/m3 and the speed of sound was 1181 ± 1 m/s. In addition, the refractive index in data set [4] (x1 = 0.546) turned out to be 1.397 ± 0.001.

In the case of `ClCCl` [dichloromethane] + CCOC(C)=O, in data set [3] (x1 = 0.5092), the viscosity was 0.456 ± 0.007 mPa·s, the mass density worked out at 1059.2 ± 0.6 kg/m3 and the speed of sound came to 1059 ± 1 m/s. For the same molecule, in data set [4] (x1 = 0.5092), the refractive index came out at 1.388 ± 0.001.

Consider `ClCCl` [dichloromethane] + COC(C)=O, for which, in data set [3] (x1 = 0.4659), the viscosity amounted to 0.425 ± 0.007 mPa·s, the mass density is on record as 1078 ± 0.6 kg/m3 and the speed of sound amounted to 1056 ± 1 m/s. In addition, the refractive index in data set [4] (x1 = 0.4659) was found to be 1.38 ± 0.001.
